Molecular target: T1, human PPAR alpha (Homo sapiens, UniProt Q07869)
T1 construct: expressed in transfected cells; host or cells: U2-OS (human osteogenic sarcoma), transient electroporation of a pSG5-based expression vector
T1 sequence (Q07869 239-466 limits assumed): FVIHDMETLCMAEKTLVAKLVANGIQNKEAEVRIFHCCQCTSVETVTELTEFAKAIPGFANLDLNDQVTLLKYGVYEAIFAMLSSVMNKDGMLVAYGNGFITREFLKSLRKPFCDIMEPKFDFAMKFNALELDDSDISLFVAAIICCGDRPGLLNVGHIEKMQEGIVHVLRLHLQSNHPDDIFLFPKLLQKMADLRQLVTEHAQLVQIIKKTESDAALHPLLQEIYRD
Test: GAL4-PPARα ligand binding domain luciferase reporter transactivation assay in transiently transfected U2-OS cells
Assay type: cell-based
Details: about 24 hours exposure, concentration giving 50% of maximal activation by reference compound ETYA
Procedure: U2-OS, (Osteogenic sarcoma, Human) was purchased from ATCC, USA. Cells were expanded and refrozen in batches from passage number six. Cells were cultured in Dulbecco's modified Eagle medium (DMEM) with 25 mM glucose, 2 mM glutamine or 4 mM L-alanyl-L-glutamine, 10% fetal calf serum, at 5% CO2. Phosphate buffered saline (PBS) without addition of calcium or magnesium was used. All cell culture reagents were from Gibco (USA) and 96-well cell culture plates were purchased from Wallach.
Standard recombinant DNA techniques were carried out as described by Ausubel (7). The Luciferase reporter vector, pGL5UAS (clone consists of five copies of the GAL4 DNA binding sequence, 5′-[…]-3′, cloned into the SacI/XhoI sites of pGL3-Promoter (Promega). The SacI/XhoI fragment carrying the UAS sites was constructed using annealed overlapping oligonucleotides.
Expression vectors used are based upon pSG5 (Stratagene). All vectors contain an EcoRI/NheI fragment encoding the DNA binding domain of GAL4 (encoding amino acid positions 1-145 of database accession number P04386) followed by an in-frame fusion to a fragment encoding the nuclear localisation sequence from T antigen of Polyoma Virus. […]
After adjustment of the amount of cell medium to 75 μl in each well, 50 μl test compound solution was added. […] After lysis, luciferase activity was measured in a 1420 Multiwell counter, Victor, from Wallach. […]

Row | EC50 | Structure (SMILES)
1 | 499 nM | CCN(Cc1ccc(Cl)cc1)C(=O)COc1ccc(CCSc2ccccc2C(=O)O)cc1 [Example 3, 2-{[2-(4-{2-[(4-chlorobenzyl)(ethyl)amino]-2-oxoethoxy}phenyl)ethyl]thio}benzoic acid]
2 | 48 nM | CCN(Cc1ccc(C(F)(F)F)cc1)C(=O)COc1ccc(CCOc2ccccc2C(=O)O)cc1 [Example 5, 2-[2-(4-{2-[Ethyl(4-trifluoromethylbenzyl)amino]-2-oxoethoxy}phenyl)ethoxy]benzoic acid]
